Experimental data published in US20230181604A1, “Use of Mitochondria-Targeted Antioxidants to Treat Severe Inflammatory Conditions” (Mitotech S.A., priority 2020, published 2023).

Experiments:
mice [1] = experiment: Shock by injection of isolated liver mitochondria into the tail vein, survival; type: in vivo; conditions: for Mortality after mitochondria injection: C12 TPP instead of SkQ1
Experimental: (§1) SkQ1 protected mice in three different mouse models of severe critical conditions. The first critical condition was induced by injection of a suspension of isolated liver mitochondria into the mouse tail vein. The second critical condition was induced by the sharp cold shock of placing mice for 90 minutes in a −20° C. environment. The third condition was induced by administration of a toxic concentration the of lipophilic cation C12 TPP, whose formula is shown below
The injection of mitochondria had no effect on survival during the first day (100% of the animals survived). However only 60% of animals survived the next two days. This survival rate persisted for at least 16 days. […] In this experiment a strong reduction in weight was clearly observed in the first 3 days after injection of mitochondria. Then the surviving animals began to recover—mortality disappeared, and body weight began to increase. In a control experiment, C12 TPP was used instead of SkQ1. In the case of C12 TPP, 20% of mice died in the first half day after the injection of mitochondria, and in two days the mortality had grown to 80%.
(§2) In the next series of experiments, it was investigated whether animals can be rescued by SkQ1 treatment administered simultaneously with the challenge or even after the challenge.

mice [2] = experiment: Cold shock (90 minutes at −20° C.), survival; type: in vivo
Experimental: as §1
In the next experiment, critical condition was caused by a completely different stress, namely by cold shock resulting from incubating mice for 1.5 hours at −20° C. It can be seen in FIG. 8 that cold shock led to dramatic increase of mortality between days 5 and 8, resulting in a survival rate of 40%.
as §2

mice [3] = experiment: Lethal shock by toxic dose of C12 TPP, survival; type: in vivo
Experimental: as §1
In the next experiment a critical condition in mice was induced by i/v injection of a toxic dose of C12 TPP (34 μmole/kg). Considering the membrane-penetrating and membrane-disruptive properties of C12 TPP, it can be expected that the lethal effect of i/v injection of C12 TPP occurs due to disruption of cells in the vascular system, including vascular endothelial cells.
This set of experiments was continued using the lethal shock was caused by toxic concentrations of C12 TPP. Two dosages of C12 TPP were used: 34 μmol/kg C12 TPP (FIG. 12) or 42 μmol/kg C12 TPP (FIG. 13). In the data shown in FIG. 12, SkQ1 (1.5 μmol/kg dosage) was administered to each of the mice both at 4.5 hours before C12 TPP and 0.5 hours after C12 TPP administration. Without SkQ1, about 80% of mice died within 32 hours after the injection of C12 TPP; with SkQ1 the death rate was reduced to 40%. In the experiment described in FIG. 13, the amount of C12 TPP was increased to 42 μmol/kg. […] In the experimental group, SkQ1 was administered once within 1 hour after C12 TPP treatment. In the SkQ1 treatment group ⅓ of the animals survived (FIG. 13).

[4] = SkQ1 bioavailability study, LCMS/MS blood concentration after i/v, i/p, s/c injection; type: in vivo; conditions: Wistar rats, 2 mg\kg
Experimental: The bioavailability of SkQ1 was determined after using different methods of administration. SPF category Wistar rats were used. SkQ1 concentration in blood samples was measured using an LCMS/MS method SkQ1 was administered at 2 mg\kg, and blood samples were taken at the indicated time points. Administration was by intravenous injection (FIG. 1A), intraperitoneal injection (FIG. 1B), or subcutaneous injection (FIG. 1C). Total SkQ1 dose was calculated as area under the curve (AUC) as shown at left of FIG. 1D. SkQ1 bioavailability was normalized to that of i/v administration and is shown at the right side of FIG. 1D.

[5] = SkQ1 blood concentration with subcutaneous slow-release infusion pumps; type: in vivo; conditions: Wistar rats, slow-release infusion pumps introduced subcutaneously
Experimental: In the next experiment SkQ1 presence in the blood was prolonged by using slow-release infusion pumps introduced subcutaneously into Wistar rats. Blood samples from these animals were taken at timepoints indicated on FIG. 2, and SkQ1 concentration was measured as described above. […] This experiment also models administration of SkQ1 using intravenous infusion.

[6] = tested on: human vascular endothelial cells; experiment: VE-cadherin study of endothelial cell-to-cell contacts after SIRS/sepsis patient serum (western blot, fluorescence microscopy); type: cell-based
Experimental: The mitochondrially targeted antioxidants disclosed herein can prevent deconstruction of cell-to-cell contacts between human vascular endothelial cells in culture when these cells are treated with blood serum samples from patients with SIRS or sepsis. Results of a VE-cadherin western blot are presented on FIG. 3, wherein a cell culture of human endothelial cells is pretreated with different dosages of SkQ1, then exposed to serum from patients diagnosed with sepsis. […] In FIG. 4, blood samples are taken from patients with diagnosed SIRS, with the patients age 18-75 years. A cell culture of human endothelial cells is pretreated with different dosages of SkQ1, then treated with 5-10% serum from the SIRS blood samples. At the top of FIG. 4, the VE-cadherin (fluorescence microscopy) c resembles the VE-cadherin at the bottom of FIG. 4 (SIRS serum+200 nM SkQ1). Actin and nucleus visualizations in FIG. 4 correspond with VE-cadherin observations.
Blood samples were taken from patients ages 18-75 years with diagnosed SIRS. Cell cultures of human endothelial cells were pretreated with different amounts of SkQ1, after which the cultures were treated with 5-10% serum from the SIRS blood samples. A one hour VE-cadherin study was performed by fluorescent microscopy followed by western-blot analysis. Results of the experiment are presented on FIG. 3 (western blot) and FIG. 4 (microscopy).

[7] = tested on: H5N1 influenza virus (strain chicken/Kurgan/5/2005); type: in vivo, balb\c mice
CD-1 mice [8] = experiment: Acute toxicity, subcutaneous administration; type: in vivo; conditions: for LD50: subcutaneous
From the text: The acute toxicity of SkQ1 solution administered by subcutaneous administration was studied in SPF male and female CD-1 mice.

CD-1 mice [9] = experiment: 28-day chronic toxicity with 14-day recovery, subcutaneous; type: in vivo
Experimental: SkQ1 solution 28-day chronic toxicity with 14-day recovery was studied in SPF male and female CD-1 mice at SkQ1 dosage of 0.6, 2.5, and 10 mg/kg administered subcutaneously, once daily. At 2.5 mg SkQ1/kg no adverse effects were identified (NOAEL) either at the end of the dosing or at the end of recovery. […] Peritonitis stemmed from the local ulcerative action of the formulation, while the adverse reactions of systems/organs were apparently the consequences of peritonitis.

TNFα = TNFα concentration in blood after shock; type: in vivo, mice; conditions: intravenous injection of liver mitochondria, i/p SkQ1
IL-6 = IL-6 concentration in blood after shock; type: in vivo, mice; conditions: intravenous injection of liver mitochondria, i/p SkQ1
[10] = H5N1-infected mice, i/p SkQ1 from day 2
[11] = SkQ1 injected one minute after shock stimulus

Compound: CCCCCCCCCCCC[P+](c1ccccc1)(c1ccccc1)c1ccccc1 [C12 TPP, reference compound]
- Mortality after mitochondria injection (mice [1]; first half day after injection): 20%
- Mortality after mitochondria injection (mice [1]; in two days): 80%
- Mortality after cold shock (mice [2]; premedication and treatment, by the sixth day): 100%
- Mice died after C12 TPP (mice [3]; 34 μmol/kg C12 TPP without SkQ1, within 32 hours): about 80%
- Mortality caused by C12 TPP (mice [3]; 34 μmol/kg i/v, within 1 day): 90%
- Death after C12 TPP (mice [3]; 42 μmol/kg C12 TPP, control group, within 1.5 hours): all 12 animals died

Compound: SkQ1
- SkQ1 bioavailability for intraperitoneal administration, of the bioavailability after intravenous administration ([4]; i/p, AUC normalized to i/v): 35%
- Persistence of SkQ1 in blood after injection ([4]; i/v, i/p or s/c injection): rapidly disappears from the blood
- SkQ1 bioavailability for subcutaneous administration, of the bioavailability after intravenous administration ([4]; subcutaneous, AUC normalized to i/v): 44%
- SkQ1 concentration in the blood with slow release [5]: can be stabilized
- VE-cadherin western blot intensity versus control ([6]; 200 nM SkQ1 and sepsis patient serum): about equal intensity to the control
- VE-cadherin fluorescence microscopy versus control ([6]; SIRS serum + 200 nM SkQ1): resembles
- Deconstruction of cell-to-cell contacts between endothelial cells ([6]; cells treated with serum from patients with SIRS or sepsis, SkQ1 pretreatment): prevented
- Death caused by influenza virus infection [7, 10]: delayed
- Development of bad health condition [7, 10]: delayed
- Protection against critical condition ([7]; intraperitoneal SkQ1 1000 nmoles/kg and 3000 nmoles/kg): protects against the critical condition
- Findings in mice surviving toxic doses (CD-1 mice [8]; 14 days after administration of toxic doses): signs of hepato- and nephrotoxicity
- Cause of lethal effect of high doses (CD-1 mice [8]; first hours after subcutaneous administration): respiratory arrest
- LD50 (CD-1 mice [8]; female CD-1 mice): 26.8 (23-31) mg SkQ1/kg
- LD50 (CD-1 mice [8]; male CD-1 mice): 31 (20.5-37.2) mg SkQ1/kg
- Animals died (due to peritonitis) (CD-1 mice [9]; 10 mg/kg subcutaneous once daily, 28 days): ≈ 15%
- NOAEL (no adverse effects identified) (CD-1 mice [9]; 28 days subcutaneous once daily, 14-day recovery): 2.5 mg SkQ1/kg
- Mortality from injection of mitochondria (mice [1]; [11]): significantly reduced
- Survival after mitochondria injection (mice [1]; treatment five days before and five days after mitochondria injection): 90%
- Mortality from cold shock (mice [2]; [11]): significantly reduced
- Death of animals after cold shock (mice [2]; premedication and after-shock treatment): completely prevented
- Effect on mortality caused by C12 TPP (mice [3]; 34 μmol/kg C12 TPP, SkQ1 pretreatment): prevented
- Death rate after C12 TPP with SkQ1 (mice [3]; 34 μmol/kg C12 TPP, SkQ1 1.5 μmol/kg 4.5 hours before and 0.5 hours after): 40%
- Fraction of animals survived (mice [3]; 42 μmol/kg C12 TPP, SkQ1 once within 1 hour after C12 TPP): ⅓
- Increase of blood concentration of TNFα (TNFα): almost completely suppressed
- Increase of blood concentration of IL-6 (IL-6): almost completely suppressed
